Laboratory results from paper PMC4214736, “Identification of a Novel Drug Lead That Inhibits HCV Infection and Cell-to-Cell Transmission by Targeting the HCV E2 Glycoprotein” (PLoS ONE, 2014).

What was measured:
[1] = target: T1, recombinant HCV E2 protein (Con1eE2, eE2) (Hepatitis C virus (isolate Con1), UniProt Q9WMX2); assay: SPR single concentration screen (Biacore T100, CM5 chip); type: binding; details: 200 µM ligand in PBS; E2 immobilised by amine coupling (about 10,000 RU)
T1 construct: E2 ectodomain residues 384-656 cut from the HCV genome polyprotein; C-terminal Protein A tag removed by PreScission protease; secreted from HEK293T cells (lentiviral)
Excerpt: SPR single concentration screen (Biacore T100, CM5 chip) on recombinant HCV E2 protein (Con1eE2, eE2)

[2] = target: T1, recombinant HCV E2 protein (Con1eE2, eE2); assay: SPR single cycle kinetics (Biacore T100, CM5 chip); type: binding
his-tagged CD81-LEL = target: T2, his-tagged CD81-LEL (Homo sapiens, UniProt P60033); assay: SPR single cycle kinetics (Biacore T100, CM5 chip); type: binding
T2 construct: His-tagged, commercial (Bioclone Inc.)
T2 sequence (P60033 113-201 limits assumed): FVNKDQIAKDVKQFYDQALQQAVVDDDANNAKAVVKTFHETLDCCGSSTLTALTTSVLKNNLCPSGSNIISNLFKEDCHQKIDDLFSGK

[3] = target: T3, HCV E2 protein binding to GST-tagged human CD81-LEL (Hepatitis C virus (isolate Con1), UniProt Q9WMX2); assay: ELISA, inhibition of E2 binding to immobilised CD81-LEL
T3 construct: with CD81 antigen (Homo sapiens)

[4] = target: HCV E2 protein Con1 eE2 (envelope protein 2 ectodomain, amino acids 384-656) (Hepatitis C virus, isolate Con1 (genotype 1)) (UniProt Q9WMX2); assay: SPR; Biacore T100; HCV E2 (1 µM in 10 mM sodium acetate pH 5) immobilised on a CM5 chip by amine coupling, about 10,000 RU; his-CD81 (50 nM) in PBS injected as positive control
Sequence of HCV E2 protein Con1 eE2 (envelope protein 2 ectodomain, amino acids 384-656) (Hepatitis C virus, isolate Con1 (genotype 1)) (Q9WMX2 384-656): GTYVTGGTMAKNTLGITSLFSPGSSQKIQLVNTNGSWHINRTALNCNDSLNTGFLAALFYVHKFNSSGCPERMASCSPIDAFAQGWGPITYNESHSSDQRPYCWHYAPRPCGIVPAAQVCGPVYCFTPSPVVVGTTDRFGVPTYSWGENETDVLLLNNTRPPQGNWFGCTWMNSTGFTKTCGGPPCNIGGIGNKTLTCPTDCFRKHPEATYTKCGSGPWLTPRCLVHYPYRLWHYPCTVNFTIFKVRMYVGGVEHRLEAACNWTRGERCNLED

T1 sequence (Q9WMX2 384-656): as above
T3 sequence (Q9WMX2 384-656, one chain of several): as the sequence (Q9WMX2 384-656) above

Nc1nc(N)nc(-c2ccccc2-c2nc(N)nc(N)n2)n1 [compound 4429, NSC# 4429]
Binding (RU) [1]: 155.3 RU

Cc1nc(/N=C(/N)N(C)C)[nH]c(=O)c1C [compound 113486, NSC# 113486]
Binding (RU) [1]: 104.7 RU

CC1(C)N=C(N)N=C(N)N1c1ccc(OCCCOc2ccccc2)c(Cl)c1.CCS(=O)(=O)O [compound 133071, NSC# 133071]
Binding (RU) [1]: 276.3 RU

COc1ccc(C2=CC(c3ccc(OC)c(OC)c3)c3c(c4ccccc4oc3=O)O2)cc1OC (stereo not drawn) [compound 211490, NSC# 211490]
Binding (RU) [1]: 102.9 RU

CSc1ccc2c(c1)C(N1CCN(C)CC1)Cc1ccccc1S2 (stereo not drawn) [compound 281816, 1-methyl-4-(3-methylsulfanyl-5,6-dihydrobenzo[b] [1]benzothiepin-5-yl)piperazine]
Kd [2]: 41 µM
Kd (his-tagged CD81-LEL): 57 µM
IC50 [3]: 0.2 to 0.5 µM

His-CD81-LEL (large extracellular loop of CD81, his-tagged) (domain or fragment)
response units bound [4]: 106 RU

NSC# 144694 [compound 144694]
Binding (RU) [1]: 118.8 RU
